# Measurements reported in ChEMBL document CHEMBL4699437, “New insights into ethionamide metabolism: influence of oxidized methionine on its degradation path” (RSC Med Chem, 2020).
# Assay: Acid dissociation constant, pKa of the compound
structure (smiles),measurement,value
CCc1cc(C(N)=S)ccn1 [ETHIONAMIDE],pKa,11.9
